Numbered stars: 1 amine (or outer) side, 2 acyl side, 3 side chain; on linkers, the order of the positions; unused ones are H or OH. Square brackets hold non-standard residues; d marks the D form. Peptide text beside a SMILES is read from it. * marks the point of attachment. Dolaproine = CO[C@@H]([C@@H]1CCCN1)[C@@H](C)C(=O)O; NHCH2(1-pyrenyl) = c1cc2ccc3ccc(CN*)c4ccc(c1)c2c34; Dil = CC[C@H](C)[C@H](NC)[C@@H](CC(=O)O)OC; PABC = O=C(OCc1ccc(N[*:1])cc1)[*:2]; X1 = C[C@@H](N*)[C@@H](O)c1ccccc1; Cit = NC(=O)NCCC[CH](N)C(=O)O; NMeV = CN[C@H](C(=O)O)C(C)C; Glycolyl = O=C(CO)*; Sar = CNCC(=O)O
Key:
[1] = ref US8512707B2; cited from earlier work
[2] = in vitro; format: in vitro ADME; conditions: BALB/c, mouse, plasma
Protocol: Each test compound (10 mM in DMSO, 2 µL) was mixed with 1 µL of 1-pyrenemethylamine (10 mM in DMSO, internal standard) and incubated at 37 °C for 10 min. Pre-warmed human plasma pooled from healthy donors or BALB/c mouse plasma (197 µL, Innovative Research) was added to the mixture, followed by incubation at 37 °C. Aliquots (10 µL) were collected at each time point (0, 1, 6, 24, 48, and 96 h) and 40 µL of cold acetonitrile containing 1% formic acid was added to precipitate proteins. Supernatant of each sample was obtained and analyzed for quantification by analytical HPLC as described above. All assays were performed in triplicate.

[3] = biological target: T1, human liver cathepsin B (Homo sapiens, UniProt P07858); assay: Cathepsin B-mediated cleavage assay using pyrene probes; format: biochemical; conditions: 37 °C, pH 5.0
T1 construct: Pre-warmed human liver cathepsin B (20 ng µL^–1, EMD Millipore); purchased EMD Millipore; host or cells: human liver (tissue-derived, as named)
Protocol: Each test compound (10 mM in DMSO, 2 µL) was mixed with 97 µL of MES buffer (25 mM MES-Na, 1 mM DTT, pH 5.0) and 1 µL of 1-pyrenemethylamine (10 mM in DMSO, internal standard). The mixture was incubated at 37 °C for 10 min. Pre-warmed human liver cathepsin B (20 ng µL^–1, EMD Millipore) in 100 µL MES buffer was added to the mixture, followed by incubation at 37 °C. Aliquots (10 µL) were collected at each time point (0, 0.5, 1, 3, 24, and 48 h). Cold acetonitrile containing 1% formic acid (40 µL) was added to precipitate proteins. Precipitated proteins were separated by centrifugation (15,000 × g, 4 °C, 30 min) and supernatant of each sample was analyzed for quantification by analytical HPLC (UV absorption at 342 nm). The amount of each probe was normalized to the peak area of the internal standard. All assays were performed at least three times in technical duplicate, and data shown are representative of the replicates.

CC[C@H](C)[C@@H]([C@@H](CC(=O)N1CCC[C@H]1[C@H](OC)[C@@H](C)C(=O)N[C@H](C)[C@@H](O)c1ccccc1)OC)N(C)C(=O)[C@@H](NC(=O)[C@@H](NC)C(C)C)C(C)C [MMAE, monomethyl auristatin E] (H-[NMeV]V[Dil][Dolaproine]-X1)
maximum tolerated dose (MTD) [1]: 1 mg/kg

CC(=O)NC(C(=O)NC(CCCNC(N)=O)C(=O)Nc1ccc(COC(=O)N(C)CC(=O)NCc2ccc3ccc4cccc5ccc2c3c45)cc1)C(C)C (centres unmarked) [probe 1a]
half-life at 100 µM [2]: 2.3 h

CC(=O)NC(CO)C(=O)NC(C(=O)NC(CCCNC(N)=O)C(=O)Nc1ccc(COC(=O)N(C)CC(=O)NCc2ccc3ccc4cccc5ccc2c3c45)cc1)C(C)C (centres unmarked) [probe 1b] (Ac-SV[Cit][PABC][Sar]-{NHCH2(1-pyrenyl)}; configuration not given here)
half-life at 100 µM [2]: 3.1 h
Cathepsin B-mediated cleavage rate of probes [3]: cleavage rate comparable with that of VCit probe 1a

CC(=O)NC(CCC(=O)O)C(=O)NC(C(=O)NC(CCCNC(N)=O)C(=O)Nc1ccc(COC(=O)N(C)CC(=O)NCc2ccc3ccc4cccc5ccc2c3c45)cc1)C(C)C (centres unmarked) [probe 1c] (Ac-EV[Cit][PABC][Sar]-{NHCH2(1-pyrenyl)}; configuration not given here)
half-life at 100 µM [2]: 19.1 h

CC(=O)NC(CC(=O)O)C(=O)NC(C(=O)NC(CCCNC(N)=O)C(=O)Nc1ccc(COC(=O)N(C)CC(=O)NCc2ccc3ccc4cccc5ccc2c3c45)cc1)C(C)C (centres unmarked) [probe 1d] (Ac-DV[Cit][PABC][Sar]-{NHCH2(1-pyrenyl)}; configuration not given here)
half-life at 100 µM [2]: 14 h

CC(=O)NC(CCCCN)C(=O)NC(C(=O)NC(CCCNC(N)=O)C(=O)Nc1ccc(COC(=O)N(C)CC(=O)NCc2ccc3ccc4cccc5ccc2c3c45)cc1)C(C)C (centres unmarked) [probe 1e] (Ac-KV[Cit][PABC][Sar]-{NHCH2(1-pyrenyl)}; configuration not given here)
half-life at 100 µM [2]: 0.9 h

CC(C)C(NC(=O)CNC(=O)CO)C(=O)NC(CCCNC(N)=O)C(=O)Nc1ccc(COC(=O)N(C)CC(=O)NCc2ccc3ccc4cccc5ccc2c3c45)cc1 (centres unmarked) [probe 1f] (Glycolyl-GV[Cit][PABC][Sar]-{NHCH2(1-pyrenyl)}; configuration not given here)
half-life at 100 µM [2]: 5 h

Reference: article PMC6023893, “Glutamic acid–valine–citrulline linkers ensure stability and efficacy of antibody–drug conjugates in mice” (Nature Communications, 2018)
